The source of these data is patent US9326513B2, “Fungicidal compositions” (Syngenta Participations AG, priority 2011, dated 2016).

Experiment [1] deals with Botrytis cinerea. The experiment can be described thus: Botrytis cinerea (gray mould), PDB microtiter plate, visual after 72 hrs. It is filed as cell-based. As to conditions: for inhibition at 1.25 ppm: rate 1.25 ppm.
In experiment [2] the test system is Monographella nivalis (syn. Microdochium nivale, Fusarium nivale). As to the kind of experiment: Monographella nivalis (snow mould, foot rot of cereals), PDB microtiter plate, visual after 72 hrs. It is filed as cell-based. As to conditions: applied alone.
Experiment [3] deals with Pyrenophora teres. As to the kind of experiment: Pyrenophora teres / barley / leaf disc preventative (net blotch). The experiment is classed as in vivo. As to conditions: foliar, compared to untreated control leaf disks, read-out: disease control. The source says: Pyrenophora teres/Barley/Leaf Disc Preventative (Net Blotch) Barley leaf segments cv. Hasso were placed on agar in a multiwell plate (24-well format) and sprayed with the formulated test compound diluted in water. The leaf segments were inoculated with a spore suspension of the fungus 2 days after application.

Experiment [4] has as its system Blumeria graminis f. sp. tritici (Erysiphe graminis f. sp. tritici). The experiment can be described thus: Blumeria graminis f. sp. tritici / wheat / leaf disc preventative (powdery mildew on wheat). The experiment is classed as in vivo. As to conditions: foliar, compared to untreated control leaf disks, read-out: disease control. A digest of the protocol:
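Preventative leaf-disc test: compound (200 ppm) was sprayed onto cv. Kanzler wheat segments, which were dusted with conidia from infected plants 1 day after application. After incubation at 20° C and 60% rh, disease control relative to untreated segments was rated 6-8 days after application.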

Experiment [5] has as its system Puccinia recondita f. sp. tritici. The experiment can be described thus: Puccinia recondita f. sp. tritici / wheat / leaf disc curative (brown rust). The experiment is classed as in vivo. As to conditions: foliar, compared to untreated control leaf disks, read-out: disease control. The protocol: Puccinia recondita f. sp. tritici/Wheat/Leaf Disc Curative (Brown Rust) Wheat leaf segments cv. Kanzler are placed on agar in multiwell plates (24-well format). The leaf segments are inoculated with a spore suspension of the fungus. Plates were stored in darkness at 19° C. and 75% rh. The formulated test compound diluted in water was applied 1 day after inoculation.

Experiment [6] has the same test system. As to the kind of experiment: Puccinia recondita f. sp. tritici / wheat / leaf disc preventative (brown rust). It is filed as in vivo. As to conditions: foliar, compared to untreated control leaf disks, read-out: disease control. The source says:
Puccinia recondita f. sp. tritici/Wheat/Leaf Disc Preventative (Brown Rust) Wheat leaf segments cv. Kanzler were placed on agar in multiwell plates (24-well format) and sprayed with the formulated test compound diluted in water. The leaf disks were inoculated with a spore suspension of the fungus 1 day after application.

Setting [7] is: Monographella nivalis, 0.0625 ppm.

For the compound `O=C(O)COc1ccc(Cl)cc1Cl` [2,4-D], the “Activity (%)” value in experiment [1] (alone, rate 2.5 ppm) worked out at 0%; in experiment [1] (alone, rate 5 ppm), 0%; in experiment [1] (alone, rate 10 ppm) it was 0%; in experiment [2] (0.625 ppm), 0%; in experiment [2] (1.25 ppm), 0%; in experiment [2] (2.5 ppm), 0%. Further, the “Activity (%)” value in experiment [2] (5 ppm), in experiment [2] (10 ppm), in experiment [2] (rate 0.3125 ppm), in experiment [2] (rate 0.625 ppm), in experiment [2] (rate 1.25 ppm) and in experiment [2] (rate 2.5 ppm) was 0% each time.

As for `CON(C(=O)c1cn(C)nc1C(F)F)C(C)Cc1c(Cl)cc(Cl)cc1Cl` (stereo not shown) [(VI), 3-(difluoromethyl)-N-methoxy-1-methyl-N-[1-methyl-2-(2,4,6-trichlorophenyl)ethyl]-1H-pyrazole-4-carboxamide, reference compound], the inhibition at 0.0078125 ppm in experiment [1] (Botrytis cinerea, alone, rate 0.0078125 ppm) amounted to 20%. This compound also came in with an inhibition at 0.015625 ppm in experiment [1] (Botrytis cinerea, alone, rate 0.015625 ppm) of 50%. In addition, the inhibition at 0.03125 ppm in experiment [1] (Botrytis cinerea, alone, rate 0.03125 ppm, read-out: Activity (%)) was 70%. The inhibition at 0.0625 ppm is 70% in experiment [1] (Botrytis cinerea, alone, rate 0.0625 ppm, read-out: Activity (%)) and 0% in experiment [2] (setting [7]). Besides, the inhibition at 0.125 ppm in experiment [2] (Monographella nivalis) worked out at 50%.

In turn, `COC(=O)Nc1nc2ccccc2[nH]1` [Carbendazim] showed an inhibition at 0.015625 ppm in experiment [2] (Monographella nivalis, rate 0.015625 ppm) of 0%. The same compound displayed an inhibition at 0.03125 ppm in experiment [2] (Monographella nivalis, rate 0.03125 ppm) of 0%. The same compound had an inhibition at 0.0625 ppm in experiment [2] (Monographella nivalis, rate 0.0625 ppm) of 0%.

Consider `N#Cc1c(Cl)c(Cl)c(Cl)c(C#N)c1Cl` [Chlorotalonil], for which the “Activity (%)” value is reported as 0% in experiment [1] (alone, rate 0.0625 ppm); 0% in experiment [1] (alone, rate 0.125 ppm); 20% in experiment [1] (alone, rate 0.25 ppm).

For `N#Cc1c(Cl)c(Cl)c(Cl)c(C#N)c1Cl` [Chlorothalonil], the inhibition at 0.03125 ppm in experiment [2] (Monographella nivalis, 0.03125 ppm) was 0%. Besides, the inhibition at 0.0625 ppm in experiment [2] (setting [7]) worked out at 20%. The same compound returned an inhibition at 0.125 ppm in experiment [2] (Monographella nivalis) of 70%.

As to `[Mn+2].[O-2]` [Manganese oxide], the “Activity (%)” value in experiment [2] (rate 0.15625 ppm), in experiment [2] (rate 0.3125 ppm), in experiment [2] (rate 0.625 ppm), in experiment [2] (rate 1.25 ppm) and in experiment [2] (rate 2.5 ppm) was 0% each time.

As to `CC12CC1(C)C(=O)N(c1cc(Cl)cc(Cl)c1)C2=O` (stereo not shown) [Procymidone], the inhibition at 1.25 ppm in experiment [1] (Botrytis cinerea, alone) was determined as 0%; in experiment [1] (Botrytis cinerea, single compound), 0%. Also, in experiment [1] (Botrytis cinerea, alone, rate 2.5 ppm, read-out: Activity (%)), the inhibition at 2.5 ppm turned out to be 50%. In experiment [1] (Botrytis cinerea, single compound, rate 0.3125 ppm), this compound showed an inhibition at 0.3125 ppm of 0%. The compound also returned an inhibition at 0.625 ppm in experiment [1] (Botrytis cinerea, single compound, rate 0.625 ppm) of 0%.

In the case of `Cc1ccccc1CC(C)Oc1ccc(/N=C/N(C)C(C)C)c(C)n1` (stereo not shown) [Q.355], the pest or weed control at 200 ppm in experiment [3], in experiment [4], in experiment [5] and in experiment [6] was not below 50% each time.

Turning to `CCN(C)/C=N/c1cc(Br)c(OC(C)CCC2CC2)nc1C` (stereo not shown) [Q.357], the pest or weed control at 200 ppm in experiment [3], in experiment [4], in experiment [5] and in experiment [6] was not below 50% in each case.

With `CCN(C)/C=N/c1ccc(OC(C)c2cc(C)cc(C)c2)nc1C` (stereo not shown) [Q.358], the pest or weed control at 200 ppm in experiment [3], in experiment [4], in experiment [5] and in experiment [6] was not below 50% throughout.

On to `CCC(Oc1ccc(/N=C/N(C)C(C)C)c(C)n1)c1cc(C)cc(C)c1` (stereo not shown) [Q.361], for which the pest or weed control at 200 ppm in experiment [3], in experiment [4], in experiment [5] and in experiment [6] was not below 50% throughout.

With `CCN(C)/C=N/c1cc(Br)c(OCCc2ccc(C)cc2)nc1C` [Q.364], the pest or weed control at 200 ppm in experiment [3], in experiment [4], in experiment [5] and in experiment [6] was not below 50% throughout.

`CCN(C)/C=N/c1cc(Br)c(OCc2cc(OC)cc(OC)c2)nc1C` [Q.370]: the pest or weed control at 200 ppm in experiment [3], in experiment [4], in experiment [5] and in experiment [6] was not below 50% each time.

For `CCN(C)/C=N/c1cc(Br)c(OC2CCC(F)(F)CC2)nc1C` [Q.375], the pest or weed control at 200 ppm in experiment [3], in experiment [4], in experiment [5] and in experiment [6] was not below 50% each time.

Take `CCN(C)/C=N/c1cc(Br)c(OC2Cc3ccc(C#N)cc3C2)nc1C` (stereo not shown) [Q.376]: the pest or weed control at 200 ppm in experiment [3], in experiment [4], in experiment [5] and in experiment [6] was not below 50% each time.

In the case of `CCN(C)/C=N/c1cc(Br)c(OC2Cc3cc(Cl)c(OC)cc3C2)nc1C` (stereo not shown) [Q.378], the pest or weed control at 200 ppm in experiment [3], in experiment [4], in experiment [5] and in experiment [6] was not below 50% each time.

On to `CCN(C)/C=N/c1ccc(O[C@H]2CC[C@H](CC)CC2)nc1C` [Q.380], for which the pest or weed control at 200 ppm in experiment [3], in experiment [4], in experiment [5] and in experiment [6] was not below 50% throughout.

`CCN(C)/C=N/c1cc(Br)c(OC2CC(C)C(C)C2)nc1C` (stereo not shown) [Q.382]: the pest or weed control at 200 ppm in experiment [3], in experiment [4], in experiment [5] and in experiment [6] was not below 50% in each case.

With `CCN(C)/C=N/c1cc(I)c(OCc2ccccc2C)nc1C` [Q.386], the pest or weed control at 200 ppm in experiment [3], in experiment [4], in experiment [5] and in experiment [6] was not below 50% in each case.

For `CCC(C)Oc1nc(C)c(/N=C/N(C)CC)cc1Br` (stereo not shown) [Q.389], the pest or weed control at 200 ppm in experiment [3], in experiment [4], in experiment [5] and in experiment [6] was not below 50% in each case.

As to `CCCCOc1nc(C)c(/N=C/N(C)CC)cc1Br` [Q.390], the pest or weed control at 200 ppm in experiment [3], in experiment [4], in experiment [5] and in experiment [6] was not below 50% each time.

With `CCN(C)/C=N/c1cc(Br)c(OCCC(C)C)nc1C` [Q.391], the pest or weed control at 200 ppm in experiment [3], in experiment [4], in experiment [5] and in experiment [6] was not below 50% throughout.

For the compound `CCN(C)/C=N/c1cc(Br)c(OC(C)CC(C)C)nc1C` (stereo not shown) [Q.392], the pest or weed control at 200 ppm in experiment [3], in experiment [4], in experiment [5] and in experiment [6] was not below 50% in each case.

Consider `C=CCOc1nc(C)c(/N=C/N(C)CC)cc1Br` [Q.393], for which the pest or weed control at 200 ppm in experiment [3], in experiment [4], in experiment [5] and in experiment [6] was not below 50% in each case.

As to `C=CC(C)Oc1nc(C)c(/N=C/N(C)CC)cc1Br` (stereo not shown) [Q.394], the pest or weed control at 200 ppm in experiment [3], in experiment [4], in experiment [5] and in experiment [6] was not below 50% each time.

As for `CCc1nc(OCc2ccccc2C)c(Br)cc1/N=C/N(C)CC` [Q.398], the pest or weed control at 200 ppm in experiment [3], in experiment [4], in experiment [5] and in experiment [6] was not below 50% in each case.

In the case of `C=C(C)c1nc(OCc2ccccc2C)c(Br)cc1/N=C/N(C)CC` [Q.400], the pest or weed control at 200 ppm in experiment [3], in experiment [4], in experiment [5] and in experiment [6] was not below 50% in each case.

As to `CON=C(C(=O)OC)c1ccccc1CON=C(C)c1cccc(C(F)(F)F)c1` [Trifloxystrobin], the inhibition at 0.0125 ppm in experiment [1] (Botrytis cinerea, alone, rate 0.0125 ppm) was 0%. Moreover, the inhibition at 0.025 ppm in experiment [1] (Botrytis cinerea, alone, rate 0.025 ppm) is 20%. In addition, the inhibition at 0.05 ppm in experiment [1] (Botrytis cinerea, alone, rate 0.05 ppm) is 50%. Further, the inhibition at 0.1 ppm in experiment [1] (Botrytis cinerea, alone, rate 0.1 ppm) turned out to be 50%. The inhibition at 0.5 ppm in experiment [1] (Botrytis cinerea, alone, rate 0.5 ppm) came to 50%. Moreover, the inhibition at 1 ppm in experiment [1] (Botrytis cinerea, alone, rate 1 ppm) came to 50%. This compound also yielded an inhibition at 2 ppm in experiment [1] (Botrytis cinerea, alone, rate 2 ppm) of 50%.
